# Results: PMC10648349, “Aromatic Diboronic Acids as Effective KPC/AmpC Inhibitors” (Molecules, 2023)
# Key:
# E. coli 77 CMY-2(+) [1] = experiment: screening test of direct antimicrobial activity (STDA), disc-diffusion; assay type: cell-based; conditions: Escherichia coli, - no zone, read-out: Diameter of inhibition zone around disc with tested agent; for zone of inhibition at 300 µg/disc: 0.3 mg per disc
# Description: (§1) Prior to combination disc tests, screening tests of direct antimicrobial activity (STDA) of the tested agent against β-lactamase-producing strains were performed by the disc-diffusion method. Discs with 0.3 mg, 0.1 mg, and 0.03 mg of each agent were examined. The highest amount of an agent that caused no effect on bacterial growth was used in further experiments.
# [2] = test system: K. pneumoniae ATCC 700603 ESBL(+); experiment: as above; assay type: cell-based; conditions: Klebsiella pneumoniae, ATCC700603, - no zone, read-out: Diameter of inhibition zone around disc with tested agent; for zone of inhibition at 300 µg/disc: 0.3 mg per disc
# Description: as §1
# [3] = test system: P. aeruginosa MUW 700 AmpC(+); experiment: as above; assay type: cell-based; conditions: Pseudomonas aeruginosa, - no zone, read-out: Diameter of inhibition zone around disc with tested agent; for zone of inhibition at 300 µg/disc: 0.3 mg per disc
# Description: as §1
# [4] = test system: K. pneumoniae ATCC BAA 1705 KPC(+); experiment: as above; assay type: cell-based; conditions: Klebsiella pneumoniae, BAA1705, - no zone, read-out: Diameter of inhibition zone around disc with tested agent; for zone of inhibition at 300 µg/disc: 0.3 mg per disc
# Description: as §1
# C. krusei ATCC 6258 = experiment: antifungal activity (disc-diffusion, MIC, MFC); assay type: cell-based, Candida krusei; conditions: Pichia kudriavzevii, ATCC6258; for zone of inhibition at 0.4 mg/disc: 0.4 mg per disc, 9 mm disc (fluconazole 0.025 mg, 6 mm disc), - no zone, read-out: Diameter of inhibition zone; for MIC: fluconazole by Etest
# How it was run: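 Susceptibility endpoints: inhibition zones (0.4 mg per disc), MIC, MBC for bacteria, MFC for yeasts. Compounds were solubilised in DMSO; nitrofurantoin, linezolid or fluconazole served as comparators per organism type.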
# [5] = test system: K. pneumoniae ATCC BAA-1705 KPC-2-positive; experiment: checkerboard microdilution, antibiotic plus tested agent; assay type: cell-based, Klebsiella pneumoniae
# How it was run: (§2)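 Read-out is the antibiotic MIC with agent present, plus FICI = combined/alone MIC ratios summed for both partners. Meropenem pairs served for carbapenemase strains and ceftazidime pairs for the AmpC strain. Agent or PBA was tested at 4–16 mg/L.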
# [6] = test system: K. pneumoniae 83 KPC-3-positive, CTX-M-3-positive; experiment: as above; assay type: cell-based, Klebsiella pneumoniae
# How it was run: as §2
# [7] = test system: K. pneumoniae 81 KPC-3-positive; experiment: as above; assay type: cell-based, Klebsiella pneumoniae
# How it was run: as §2
# [8] = test system: P. aeruginosa MUW 700 cAmpC-positive; experiment: as above; assay type: cell-based, Pseudomonas aeruginosa
# How it was run: as §2
# KPC producers = experiment: microdilution with carbapenems; assay type: cell-based
# How it was run: as §2
# [9] = test system: E. coli 76 KPC-2-positive; experiment: checkerboard microdilution, antibiotic plus tested agent; assay type: cell-based, Escherichia coli
# How it was run: as §2
# [10] = test system: K. pneumoniae 81 KPC-3(+); experiment: MIC of tested agent alone, microdilution; assay type: cell-based; conditions: Klebsiella pneumoniae; read-out: MIC of agent alone
# How it was run: (§3)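 Two-fold checkerboard dilutions pair β-lactams (1–64 mg/L) with tested agents (4–16 mg/L); agent MICs alone come from parallel microdilution.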
# [11] = test system: K. pneumoniae ATCC BAA-1705 KPC-2(+); experiment: MIC of tested agent alone, microdilution; assay type: cell-based; conditions: Klebsiella pneumoniae, ATCCBAA1705; read-out: MIC of agent alone
# How it was run: as §3
# E. coli 77 CMY-2(+) [12] = experiment: MIC of tested agent alone, microdilution; assay type: cell-based; conditions: Escherichia coli; read-out: MIC of agent alone
# How it was run: as §3
# [13] = test system: K. pneumoniae 83 KPC-3(+), CTX-M-3(+); experiment: MIC of tested agent alone, microdilution; assay type: cell-based; conditions: Klebsiella pneumoniae; read-out: MIC of agent alone
# How it was run: as §3
# E. coli 76 KPC-2(+) = experiment: MIC of tested agent alone, microdilution; assay type: cell-based; conditions: Escherichia coli; read-out: MIC of agent alone
# How it was run: as §3
# [14] = test system: P. aeruginosa MUW 700 AmpC(+); experiment: MIC of tested agent alone, microdilution; assay type: cell-based; conditions: Pseudomonas aeruginosa; read-out: MIC of agent alone
# How it was run: as §3
smiles,measurement,setting,value
"OB(O)c1cc(F)ccc1F [7a, 2,5-difluorophenylboronic acid]",zone of inhibition at 100 µg/disc,E. coli 77 CMY-2(+) [1]; 0.1 mg per disc,13 mm
same,zone of inhibition at 300 µg/disc,E. coli 77 CMY-2(+) [1],18 mm
same,zone of inhibition at 100 µg/disc,[2]; 0.1 mg per disc,18 mm
same,zone of inhibition at 300 µg/disc,[2],18 mm
same,zone of inhibition at 100 µg/disc,[3]; 0.1 mg per disc,11 mm
same,zone of inhibition at 300 µg/disc,[3],12 mm
same,zone of inhibition at 100 µg/disc,[4]; 0.1 mg per disc,12 mm
same,zone of inhibition at 300 µg/disc,[4],17 mm
same,zone of inhibition at 0.4 mg/disc,C. krusei ATCC 6258,15 mm
same,MIC,C. krusei ATCC 6258,50 µg/mL
same,Average FICI with ERT,[5],0.76
same,Average FICI with IMI,[5],0.43
same,Average FICI with MEM,[5],0.51
same,The lowest FICI with ERT,[5],0.58
same,The lowest FICI with IMI,[5],0.33
same,The lowest FICI with MEM,[5],0.41
same,Average FICI with ERT,[6],0.51
same,Average FICI with IMI,[6],0.30
same,Average FICI with MEM,[6],0.47
same,The lowest FICI with ERT,[6],0.41
same,The lowest FICI with IMI,[6],0.29
same,The lowest FICI with MEM,[6],0.29
same,Average FICI with ERT,[7],0.46
same,Average FICI with IMI,[7],0.21
same,Average FICI with MEM,[7],0.23
same,The lowest FICI with ERT,[7],0.33
same,The lowest FICI with IMI,[7],0.17
same,The lowest FICI with MEM,[7],0.14
same,Average FICI with ceftazidime,[8],0.17
same,Interpretation of the average FICI with ceftazidime,[8],"S (FICI ≤ 0.5, synergy)"
same,Interpretation of the lowest FICI with ceftazidime,[8],"S (FICI ≤ 0.5, synergy)"
same,The lowest FICI with ceftazidime,[8],0.10
same,"carbapenems' MIC reduction, up to",KPC producers; agent 4 mg/L,≤ 2 fold
same,"carbapenems' MIC reduction, up to",KPC producers; agent 8 mg/L,up to 8 fold
same,Average FICI with ERT,[9],0.51
same,Average FICI with IMI,[9],0.30
same,Average FICI with MEM,[9],0.51
same,The lowest FICI with ERT,[9],0.41
same,The lowest FICI with IMI,[9],0.29
same,The lowest FICI with MEM,[9],0.41
same,MIC,[10],200 µg/mL
same,MIC,[11],100 µg/mL
same,MIC,E. coli 77 CMY-2(+) [12],100 µg/mL
same,MIC,[13],100 µg/mL
same,MIC,E. coli 76 KPC-2(+),100 µg/mL
same,MIC,[14],400 µg/mL
OB(O)c1cc(F)c(B(O)O)cc1F [1e],zone of inhibition at 300 µg/disc,E. coli 77 CMY-2(+) [1],18 mm
same,zone of inhibition at 300 µg/disc,[2],14 mm
same,zone of inhibition at 300 µg/disc,[3],14 mm
same,zone of inhibition at 300 µg/disc,[4],15 mm
same,zone of inhibition at 0.4 mg/disc,C. krusei ATCC 6258,16 mm
same,MIC,C. krusei ATCC 6258,> 400 µg/mL
same,Average FICI with ERT,[5],0.88
same,Average FICI with IMI,[5],0.71
same,Average FICI with MEM,[5],0.46
same,The lowest FICI with ERT,[5],0.58
same,The lowest FICI with IMI,[5],0.54
same,The lowest FICI with MEM,[5],0.33
same,Average FICI with ERT,[6],0.63
same,Average FICI with IMI,[6],0.55
same,Average FICI with MEM,[6],0.63
same,The lowest FICI with ERT,[6],0.33
same,The lowest FICI with IMI,[6],0.52
same,The lowest FICI with MEM,[6],0.33
same,Average FICI with ERT,[7],0.55
same,Average FICI with IMI,[7],0.38
same,Average FICI with MEM,[7],0.46
same,The lowest FICI with ERT,[7],0.52
same,The lowest FICI with IMI,[7],0.29
same,The lowest FICI with MEM,[7],0.33
same,Average FICI with ceftazidime,[8],0.38
same,Interpretation of the average FICI with ceftazidime,[8],"S (FICI ≤ 0.5, synergy)"
same,Interpretation of the lowest FICI with ceftazidime,[8],"S (FICI ≤ 0.5, synergy)"
same,The lowest FICI with ceftazidime,[8],0.29
same,Average FICI with ERT,[9],0.39
same,Average FICI with IMI,[9],0.51
same,Average FICI with MEM,[9],0.51
same,The lowest FICI with ERT,[9],0.29
same,The lowest FICI with IMI,[9],0.41
same,The lowest FICI with MEM,[9],0.41
same,MIC,[10],200 µg/mL
same,MIC,[11],200 µg/mL
same,MIC,E. coli 77 CMY-2(+) [12],100 µg/mL
same,MIC,[13],200 µg/mL
same,MIC,E. coli 76 KPC-2(+),100 µg/mL
same,MIC,[14],200 µg/mL
